Converted amounts (≈) assume the structure as drawn. Where two headings read alike, the source gives them in different places. Numbered stars: 1 amine (or outer) side, 2 acyl side, 3 side chain; on linkers, the order of the positions; unused ones are H or OH. Bridge positions count the residues as written; N and C are the ends. Peptide text beside a SMILES is read from it. * marks the point of attachment. C20 diacid = O=C(O)CCCCCCCCCCCCCCCCCCC(=O)*; γGlu = O=C(O)[C@H](CCC(=O)[*:2])N[*:1]
Key:
[1] = biological target: T1, human amylin 3(a) receptor (human calcitonin receptor + RAMP-3) in BHK570 cells (Homo sapiens, UniProt O60896+P30988); assay: ASSAY (II)a functional assay, human amylin receptor (CRE luciferase); type: cell-based
T1 construct: expressed in transfected cells
How it was run: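 BHK cells stably carrying a CRE-luciferase reporter plus calcitonin receptor, or calcitonin receptor with RAMP-3 for the amylin 3(a) receptor, were seeded and kept overnight at 37° C. Compounds were added in assay medium with 10% FBS and 10 mM Hepes, pH 7.4, for 3 hours at 37° C, then luminescence was counted.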

[2] = ASSAY (IV) determination of solubility; type: physicochemical
How it was run: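 Polypeptide in water at […] mixed 1:1 with 100 mM buffers of pH 3.0-8.0 (glycylglycine pH 3-5, bistrispropane pH 6-8). Held 18 h at room temperature, then centrifuged; concentration remaining in solution measured by UPLC.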

[3] = biological target: T2, human amylin receptor (membranes from Amylin 3(a)/CRE-luc cells) (Homo sapiens, UniProt O60896+P30988); assay: ASSAY (V) binding to the human amylin receptor (SPA, 125I-rat amylin);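 further: competition binding of cell membranes (35 ng/µL) mixed with SPA beads in 384-well plates at 40 µL total volume, read by scintillation counting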
T2 construct: expressed in transfected cells
T2 sequence (P30988 25-474): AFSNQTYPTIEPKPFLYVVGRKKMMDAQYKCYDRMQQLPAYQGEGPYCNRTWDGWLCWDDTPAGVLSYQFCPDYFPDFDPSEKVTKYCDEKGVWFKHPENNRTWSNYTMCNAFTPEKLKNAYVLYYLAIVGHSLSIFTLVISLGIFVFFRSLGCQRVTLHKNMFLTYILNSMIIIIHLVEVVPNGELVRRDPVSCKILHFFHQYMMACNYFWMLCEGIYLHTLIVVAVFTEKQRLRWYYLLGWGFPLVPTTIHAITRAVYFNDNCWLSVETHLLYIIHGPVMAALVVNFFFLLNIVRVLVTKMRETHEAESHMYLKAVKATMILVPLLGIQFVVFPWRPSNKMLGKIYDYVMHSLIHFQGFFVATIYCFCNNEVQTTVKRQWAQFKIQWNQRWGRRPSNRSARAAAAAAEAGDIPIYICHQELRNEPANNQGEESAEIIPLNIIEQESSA
T2 sequence (O60896 24-148 partner): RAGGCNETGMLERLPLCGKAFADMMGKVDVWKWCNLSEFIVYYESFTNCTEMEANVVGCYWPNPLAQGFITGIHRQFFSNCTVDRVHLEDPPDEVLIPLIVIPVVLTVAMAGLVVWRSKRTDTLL

[4] = biological target: T3, rat amylin receptor (rat calcitonin receptor + rat RAMP 3) (Rattus norvegicus, UniProt P32214+Q9JJ73); assay: ASSAY (VI) binding to the rat amylin receptor; settings: for IC50: binding to rat amylin receptor, read-out: rAmylin-R bind IC50
T3 construct: expressed in transfected cells; host or cells: BHK tk'ts 13 (transient, FuGENE 6), membranes
T3 sequence (P32214 25-479 isoform P32214-2 limits assumed): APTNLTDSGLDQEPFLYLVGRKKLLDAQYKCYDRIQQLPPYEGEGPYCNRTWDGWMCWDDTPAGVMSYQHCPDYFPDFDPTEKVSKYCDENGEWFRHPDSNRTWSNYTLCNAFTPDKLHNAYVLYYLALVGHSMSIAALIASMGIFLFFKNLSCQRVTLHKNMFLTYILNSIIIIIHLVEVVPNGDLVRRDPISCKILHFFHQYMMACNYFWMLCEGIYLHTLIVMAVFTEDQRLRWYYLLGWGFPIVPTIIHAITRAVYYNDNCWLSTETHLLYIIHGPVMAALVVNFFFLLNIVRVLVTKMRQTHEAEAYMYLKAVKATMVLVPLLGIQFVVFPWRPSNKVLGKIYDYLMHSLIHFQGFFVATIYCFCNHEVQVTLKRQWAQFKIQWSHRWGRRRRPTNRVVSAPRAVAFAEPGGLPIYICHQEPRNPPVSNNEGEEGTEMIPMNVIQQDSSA
T3 sequence (Q9JJ73 23-147 partner): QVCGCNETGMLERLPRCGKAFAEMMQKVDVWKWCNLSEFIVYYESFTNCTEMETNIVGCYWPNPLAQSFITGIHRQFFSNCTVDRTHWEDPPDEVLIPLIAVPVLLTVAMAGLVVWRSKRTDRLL
How it was run: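 Binding to the rat amylin receptor was determined with membrane preparations. The receptor was expressed by transiently transfecting BHK tk′ts 13 cells with rat calcitonin receptor, using FuGENE® 6 (Roche) according to the manufacturer's recommendations. Roughly 48 hours later the cells were harvested and their membranes isolated.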

[5] = biological target: T4, rat calcitonin receptor (Rattus norvegicus, UniProt P32214); assay: ASSAY (VIII) binding to the rat calcitonin receptor; settings: Table 7, read-out: rCTR bind IC50
T4 construct: expressed in transfected cells; host or cells: BHK tk'ts 13 (transient, FuGENE 6), membranes
T4 sequence (P32214 25-479 isoform P32214-2 limits assumed): T3 sequence (P32214 25-479 isoform P32214-2 limits assumed)
How it was run: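 Membranes were prepared from BHK tk′ts 13 cells transiently transfected with rat calcitonin receptor. Cells were grown in DMEM with 10% FBS and harvested approximately 48 hours after transfection.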

[6] = hCTR funct. EC50 divided by hAmylin-R funct. EC50
[7] = hCTR funct. EC50 over hAmylin-R funct. EC50
[8] = human functional selectivity: hCTR funct. EC50 / hAmylin-R funct. EC50
[9] = bistrispropane buffer, pH 6.5, read-out: Solubility pH 6.5 Concentration
[10] = bistrispropane buffer, pH 7.5, read-out: Solubility pH 7.5 Concentration
[11] = bistrispropane buffer, pH 6.0, read-out: Solubility pH 6.0 Concentration
[12] = bistrispropane buffer, pH 7.0, read-out: Solubility pH 7.0 Concentration
[13] = bistrispropane buffer, pH 8.0, read-out: Solubility pH 8.0 Concentration
[14] = glycylglycine buffer, pH 3.0, read-out: Solubility pH 3.0 Concentration
[15] = glycylglycine buffer, pH 4.0, read-out: Solubility pH 4.0 Concentration
[16] = glycylglycine buffer, pH 5.0, read-out: Solubility pH 5.0 Concentration
[17] = Table 5, selectivity, hCTR bind IC50 / hAmylin-R bind IC50
[18] = Table 5a, selectivity, hCTR bind IC50 / hAmylin-R bind IC50
[19] = Table 5b, selectivity, hCTR bind IC50 / hAmylin-R bind IC50
[20] = Table 5c, selectivity, hCTR bind IC50 / hAmylin-R bind IC50
[21] = Table 7, human binding selectivity, included for comparison
[22] = Table 7a (preferred compounds), human binding selectivity, included for comparison
[23] = ratio of human calcitonin receptor binding IC50 to human amylin receptor binding IC50
[24] = Table 7, rat binding selectivity, rCTR IC50 / rAmylin-R IC50
[25] = Table 7a (preferred compounds), rat binding selectivity, rCTR IC50 / rAmylin-R IC50
[26] = ratio of rCTR bind IC50 to rAmylin-R bind IC50

With `CC[C@H](C)[C@H](NC(=O)[C@H](C)NC(=O)CNC(=O)[C@H](Cc1ccccc1)NC(=O)[C@H](CC(N)=O)NC(=O)[C@@H]1CCCN1C(=O)[C@H](CO)NC(=O)[C@H](CO)NC(=O)[C@H](Cc1c[nH]cn1)NC(=O)[C@H](CCCNC(=N)N)NC(=O)[C@H](CC(C)C)NC(=O)[C@H](Cc1ccccc1)NC(=O)[C@H](CC(N)=O)NC(=O)[C@H](C)NC(=O)[C@H](CC(C)C)NC(=O)[C@H](CCCNC(=N)N)NC(=O)[C@H](CCC(N)=O)NC(=O)[C@@H](NC(=O)[C@H](C)NC(=O)[C@@H]1CSSC[C@H](NC(=O)[C@@H](N)CCCCNC(=O)COCCOCCNC(=O)COCCOCCNC(=O)CC[C@H](NC(=O)CCCCCCCCCCCCCCCCCCC(=O)O)C(=O)O)C(=O)N[C@@H](CC(N)=O)C(=O)N[C@@H]([C@@H](C)O)C(=O)N[C@@H](C)C(=O)N[C@@H]([C@@H](C)O)C(=O)N1)[C@@H](C)O)C(=O)N1CCC[C@H]1C(=O)N[C@@H](CO)C(=O)N[C@@H](CO)C(=O)N[C@H](C(=O)N[C@@H](CC(N)=O)C(=O)N[C@H](C(=O)NCC(=O)N[C@@H](Cc1c[nH]cn1)C(=O)N[C@@H](CC(N)=O)C(=O)N[C@H](C(=O)N[C@@H](Cc1ccc(O)cc1)C(N)=O)[C@@H](C)O)C(C)C)[C@@H](C)O` [Example 97] the “Ratio hCT/hAmylin funct.” value [1, 6] was 33.0, the “Ratio hCT/hAmylin funct.” value [1, 7] was 33.0 and the “Ratio hCT/hAmylin funct.” value [1, 8] was 33.0. The solubility at 18 h [2, 9] was ≥ 200 µM, the solubility at 18 h [2, 10] was 88 µM (≈ 415 µg/mL) and the solubility at 18 h [2, 11] was ≥ 200 µM. For the same compound, the solubility at 18 h [2, 12] was ≥ 200 µM, the solubility at 18 h [2, 13] was 43 µM (≈ 203 µg/mL) and the solubility at 18 h [2, 14] was ≥ 200 µM. For the same compound, the solubility at 18 h [2, 15] was ≥ 200 µM, the solubility at 18 h [2, 16] was ≥ 200 µM and the “Solubility pH 6.5 Concentration” value ([2]; pH 6.5 (Table 9a)) was “≧200 μM”. For the same compound, the “Solubility pH 7.0 Concentration” value ([2]; pH 7.0 (Table 9a)) was “≧200 μM”, the “Ratio hCT/hAmylin binding” value [3, 17] was 103.7 and the “Ratio hCT/hAmylin binding” value [3, 18] was 103.7. For the same compound, the “Ratio hCT/hAmylin binding” value [3, 19] was 103.7, the “Ratio hCT/hAmylin binding” value [3, 20] was 103.7 and the “Ratio hCT/hAmylin binding” value [3, 21] was 103.7. The “Ratio hCT/hAmylin binding” value [3, 22] was 103.7, the “Ratio hCT/hAmylin binding” value [3, 23] was 103.7 and the IC50 ([4]; Table 7) was 2.24 nM. The “Ratio rCT/rAmylin binding” value [4, 24] was 71.1, the “Ratio rCT/rAmylin binding” value [4, 25] was 71.1 and the “Ratio rCT/rAmylin binding” value [4, 26] was 71.1. The IC50 [5] was 159 nM.

For `CC[C@H](C)[C@H](NC(=O)[C@H](C)NC(=O)CNC(=O)[C@H](Cc1ccccc1)NC(=O)[C@H](CC(N)=O)NC(=O)[C@@H]1CCCN1C(=O)[C@H](CO)NC(=O)[C@H](CO)NC(=O)[C@H](Cc1c[nH]cn1)NC(=O)[C@H](CCCNC(=N)N)NC(=O)[C@H](CC(C)C)NC(=O)[C@H](Cc1ccccc1)NC(=O)[C@H](CC(N)=O)NC(=O)[C@H](C)NC(=O)[C@H](CC(C)C)NC(=O)[C@H](CCCNC(=N)N)NC(=O)[C@H](CCC(N)=O)NC(=O)[C@@H](NC(=O)[C@H](C)NC(=O)[C@@H]1CSSC[C@H](NC(=O)[C@H](CCCNC(=N)N)NC(=O)CNC(=O)CC[C@H](NC(=O)CCCCCCCCCCCCCCCCCCC(=O)O)C(=O)O)C(=O)N[C@@H](CC(N)=O)C(=O)N[C@@H]([C@@H](C)O)C(=O)N[C@@H](C)C(=O)N[C@@H]([C@@H](C)O)C(=O)N1)[C@@H](C)O)C(=O)N1CCC[C@H]1C(=O)N[C@@H](CO)C(=O)N[C@@H](CO)C(=O)N[C@H](C(=O)N[C@@H](CC(N)=O)C(=O)N[C@H](C(=O)NCC(=O)N[C@@H](CO)C(=O)N[C@@H](CC(N)=O)C(=O)N[C@H](C(=O)N[C@@H](Cc1ccc(O)cc1)C(N)=O)[C@@H](C)O)C(C)C)[C@@H](C)O` [Example 46] ({C20 diacid-γGlu}-GRCNTATCATQRLANFLRHSSPNFGAIPSSTNVGSNTY-NH2; disulfide 3-8 (inferred)), the “Ratio hCT/hAmylin funct.” value [1, 6] was 10.2, the “Ratio hCT/hAmylin funct.” value [1, 7] was 10.2 and the “Ratio hCT/hAmylin funct.” value [1, 8] was 10.2. For the same compound, the solubility at 18 h [2, 9] was ≥ 200 µM, the solubility at 18 h [2, 10] was 106 µM (≈ 473 µg/mL) and the solubility at 18 h [2, 11] was ≥ 200 µM. For the same compound, the solubility at 18 h [2, 12] was 186 µM (≈ 831 µg/mL), the solubility at 18 h [2, 13] was 145 µM (≈ 648 µg/mL) and the solubility at 18 h [2, 14] was ≥ 200 µM. The solubility at 18 h [2, 15] was ≥ 200 µM, the solubility at 18 h [2, 16] was ≥ 200 µM and the “Ratio hCT/hAmylin binding” value [3, 17] was 48.9. The “Ratio hCT/hAmylin binding” value [3, 18] was 48.9, the “Ratio hCT/hAmylin binding” value [3, 19] was 48.9 and the “Ratio hCT/hAmylin binding” value [3, 20] was 48.9. The “Ratio hCT/hAmylin binding” value [3, 21] was 48.9, the “Ratio hCT/hAmylin binding” value [3, 22] was 48.9 and the “Ratio hCT/hAmylin binding” value [3, 23] was 48.9. The IC50 ([4]; Table 7) was 0.33 nM, the “Ratio rCT/rAmylin binding” value [4, 24] was 141.8 and the “Ratio rCT/rAmylin binding” value [4, 25] was 141.8. For the same compound, the “Ratio rCT/rAmylin binding” value [4, 26] was 141.8 and the IC50 [5] was 46.8 nM.

— US9023789B2, “Amylin analogs and pharmaceutical compositions thereof” (Novo Nordisk A/S, priority 2012, dated 2015)
